{"source": "paper PMC12022909", "about": "“A Multicomponent Reaction-Based Platform Opens New Avenues in Aryl Hydrocarbon Receptor Modulation” (ACS Central Science, 2025)", "target": "T1, AhR (Homo sapiens, UniProt P35869)", "T1 construct": "Degradation of endogenous AhR was further confirmed via Western blotting and global proteomics measurements in cells treated with 12b; host or cells: MCF7", "T1 sequence (P35869 11-848)": "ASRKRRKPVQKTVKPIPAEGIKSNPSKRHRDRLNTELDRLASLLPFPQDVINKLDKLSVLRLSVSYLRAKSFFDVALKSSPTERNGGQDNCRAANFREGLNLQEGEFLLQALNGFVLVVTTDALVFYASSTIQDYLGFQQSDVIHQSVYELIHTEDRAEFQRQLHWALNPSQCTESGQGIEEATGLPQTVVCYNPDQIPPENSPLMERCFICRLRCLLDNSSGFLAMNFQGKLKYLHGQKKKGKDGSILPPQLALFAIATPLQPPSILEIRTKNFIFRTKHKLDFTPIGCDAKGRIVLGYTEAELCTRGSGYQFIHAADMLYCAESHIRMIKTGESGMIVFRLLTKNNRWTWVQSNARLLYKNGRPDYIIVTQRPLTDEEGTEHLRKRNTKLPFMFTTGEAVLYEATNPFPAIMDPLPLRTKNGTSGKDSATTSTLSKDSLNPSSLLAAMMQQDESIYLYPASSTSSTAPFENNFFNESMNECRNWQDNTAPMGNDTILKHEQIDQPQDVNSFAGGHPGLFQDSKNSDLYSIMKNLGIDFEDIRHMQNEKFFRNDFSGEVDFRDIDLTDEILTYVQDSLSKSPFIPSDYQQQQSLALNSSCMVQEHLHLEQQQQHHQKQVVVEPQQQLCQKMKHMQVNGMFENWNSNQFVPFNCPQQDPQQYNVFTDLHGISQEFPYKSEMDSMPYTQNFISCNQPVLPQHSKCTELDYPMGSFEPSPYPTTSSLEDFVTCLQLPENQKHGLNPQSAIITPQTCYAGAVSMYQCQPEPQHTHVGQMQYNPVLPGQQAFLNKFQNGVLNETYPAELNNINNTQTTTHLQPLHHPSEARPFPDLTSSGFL", "test": "Western blot of AhR in MCF7 cells", "assay_type": "cell-based", "details": "10 µM, 5 h", "experimental": "Figure S30. Agonists induce degradation of AhR.\n12b, 12c, and 12d at a concentration of 10 µM for 5h. The numbers on the Blot indicate the signal intensities of the bands relative to the Tubulin bands, normalized to DMSO treatment as quantified with Empiria Studio. […]\nCell culture and treatment […]\nMCF7 cells were purchased from ATCC and grown in DMEM with 10% FCS and 1% penicillin/ streptomycin. […]\nAll cells were cultivated at 37 °C in a humidified atmosphere containing 5% CO 2.\nTapinarof (MedChemExpress, Monmouth Junction, NJ), benzo[a]pyrene (Sigma-Aldrich, Taufkirchen, Germany), TCDD (Amchro, Hattersheim am Main, Germany) and all compounds synthesized in this study were dissolved in dimethyl sulfoxide (DMSO; Roth). […]\nQuantitative real-time PCR […]\n• CYP1A1: […] (forward (5'>3')); […] (reverse (5'>3')).\n• CYP1B1: […] (forward (5'>3')); […] (reverse (5'>3')).\n• CCL26: […] (forward (5'>3')); […] (reverse (5'>3')).\n• IL-19: […] (forward (5'>3')); […] (reverse (5'>3')).\n• CXCL1: […] (forward (5'>3')); […] (reverse (5'>3')).\n• β-actin: […] (forward (5'>3')); […] (reverse (5'>3')). […]\nThe assay was carried out as described earlier. Luciferase activity was normalized to protein content.\nSDS-PAGE/Western blot analysis\nCells were lysed in RIPA buffer on ice and subsequently centrifuged for 15 min at 4 °C at maximum speed. Protein samples were separated by 10% and 12% SDS -polyacrylamide gel electrophoresis and blotted onto PVDF (GE Healthcare, Freiburg, Germany) or Nitrocellulose (BioRad #17 04158) membranes. Blots were blocked with 5% skim milk or bovine serum albumin in TBS -Tween-20 (0.1%) for or Intercept® (TBS) Blocking Buffer (LI -COR Biosciences) 1 h at room temperature and subsequently incubated overnight at 4 °C with primary antibodies. Blots were washed and then incubated for 1 h with a 1:5000 dilution of HRP -conjugated secondary antibodies in 5% bovine serum albumin in TBS -Tween-20 (0.1%) or anti-Mouse (Licor, IRDye® 680RD Goat anti -Mouse IgG, 1:10k dilution) or anti-Rabbit secondary antibody (Licor, IRDye® Goat anti -Rabbit IgG, 1:10k dilution) at room temperature. Bands were visualized using WesternBright ECL HRP substrate (Advansta, San Jose, CA) and a C -DiGit Western Blot Scanner (LI -COR Biotechnology, Lincoln, NE) or a Licor Odyssey CLx imager. Primary antibodies used in this study are as follows. AhR (Cat.No. 83200; Cell Signaling Technology, Leiden, The Netherlands). AIP (Cat.No. sc-59730; Santa Cruz Biotechnology, Dallas, TX). Cul4B (Cat.No. abx004735; Abbexa, Houston, TX). GAPDH (Cat.No. 2118; Cell Signaling Technology). Vinculin (Cat.No. 13901, Cell Signaling Technology). α - Tubulin (Abcam, ab7291, 1:10k dilution).\nHaCaT-EV and HaCaT-shAhR cells were treated with either vehicle (DMSO) or 10 µM 12d for 0.5 h and 1 h. […]", "data": [{"smiles": "Cc1[nH]c2ccccc2c1-c1c2[nH]c3ccccc3c2cc2[nH]c3ccccc3c12", "note": "[5e]", "values": [{"measurement": "AhR receptor proteolysis", "result": "induced receptor proteolysis"}]}]}
